Patent US20230085307A1, “PYRIDAZINONE COMPOUND AND HERBICIDE” (NISSAN CHEMICAL CORPORATION, priority 2019, published 2023)

What was measured:
barnyard grass [1] = assay: Test Example 5: herbicidal effect by foliage application, plastic box (Table 20, symbol H); assay type: in vivo, barnyard grass (Echinochloa crus-galli)
Summary of the method: (§1)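 Foliar spray test: emulsion formulation diluted in water to a set application rate, sprayed onto 14-day-old plants raised in diluvial soil at 25° C to 30° C under glass. Both herbicidal effect and crop effect rated visually three weeks later.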

chickweed [2] = assay: Test Example 5: herbicidal effect by foliage application, plastic box (Table 20, symbol P); assay type: in vivo, common chickweed (Stellaria media); conditions: amount of applied herbicide 320 g/ha; foliage application after 14-day growth; evaluated three weeks after application
Summary of the method: as §1

blackgrass [3] = assay: Test Example 5: herbicidal effect by foliage application, plastic box (Table 20, symbol J); assay type: in vivo, blackgrass (Alopecurus myosuroides)
Summary of the method: as §1

chickweed [4] = assay: Test Example 4: herbicidal effect by soil treatment (Table 19, symbol P); assay type: in vivo, common chickweed (Stellaria media); conditions: amount of applied herbicide 320 g/ha
Summary of the method: (§2)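 Step 1: sow seeds in sterilized diluvial soil, cover ~1.5 cm. Step 2: spray diluted emulsion onto soil surface at predetermined rate. Step 3: greenhouse, 25–30° C, three weeks. Step 4: grade effect on each plant by earlier criteria.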

velvetleaf [5] = assay: Test Example 4: herbicidal effect by soil treatment (Table 19, symbol M); assay type: in vivo, velvetleaf (Abutilon theophrasti); conditions: amount of applied herbicide 320 g/ha
Summary of the method: as §2

velvetleaf [6] = assay: Test Example 5: herbicidal effect by foliage application, plastic box (Table 20, symbol M); assay type: in vivo, velvetleaf (Abutilon theophrasti)
Summary of the method: as §1

persian speedwell [7] = assay: Test Example 4: herbicidal effect by soil treatment (Table 19, symbol R); assay type: in vivo, Persian speedwell (Veronica persica); conditions: amount of applied herbicide 320 g/ha
Summary of the method: as §2

persian speedwell [8] = assay: Test Example 5: herbicidal effect by foliage application, plastic box (Table 20, symbol R); assay type: in vivo, Persian speedwell (Veronica persica)
Summary of the method: as §1

southern crabgrass [9] = assay: Test Example 5: herbicidal effect by foliage application, plastic box (Table 20, symbol F); assay type: in vivo, southern crabgrass (Digitaria ciliaris)
Summary of the method: as §1

lambsquarters [10] = assay: Test Example 5: herbicidal effect by foliage application, plastic box (Table 20, symbol O); assay type: in vivo, lambsquarters (Chenopodium album); conditions: amount of applied herbicide 320 g/ha; foliage application after 14-day growth; evaluated three weeks after application
Summary of the method: as §1

wild oat [11] = assay: Test Example 5: herbicidal effect by foliage application, plastic box (Table 20, symbol I); assay type: in vivo, wild oat (Avena fatua)
Summary of the method: as §1

blackgrass [12] = assay: Test Example 4: herbicidal effect by soil treatment (Table 19, symbol J); assay type: in vivo, blackgrass (Alopecurus myosuroides); conditions: amount of applied herbicide 320 g/ha
Summary of the method: as §2

windgrass [13] = assay: Test Example 4: herbicidal effect by soil treatment (Table 19, symbol L); assay type: in vivo, windgrass (Apera spica-venti); conditions: amount of applied herbicide 320 g/ha
Summary of the method: as §2

redroot pigweed [14] = assay: Test Example 5: herbicidal effect by foliage application, plastic box (Table 20, symbol N); assay type: in vivo, redroot pigweed (Amaranthus retroflexus); conditions: amount of applied herbicide 320 g/ha; foliage application after 14-day growth; evaluated three weeks after application
Summary of the method: as §1

windgrass [15] = assay: Test Example 5: herbicidal effect by foliage application, plastic box (Table 20, symbol L); assay type: in vivo, windgrass (Apera spica-venti)
Summary of the method: as §1

redroot pigweed [16] = assay: Test Example 4: herbicidal effect by soil treatment (Table 19, symbol N); assay type: in vivo, redroot pigweed (Amaranthus retroflexus); conditions: amount of applied herbicide 320 g/ha
Summary of the method: as §2

lambsquarters [17] = assay: Test Example 4: herbicidal effect by soil treatment (Table 19, symbol O); assay type: in vivo, lambsquarters (Chenopodium album); conditions: amount of applied herbicide 320 g/ha
Summary of the method: as §2

barnyard grass [18] = assay: Test Example 4: herbicidal effect by soil treatment (Table 19, symbol H); assay type: in vivo, barnyard grass (Echinochloa crus-galli); conditions: amount of applied herbicide 320 g/ha
Summary of the method: as §2

rice flat sedge = assay: Test Example 3: herbicidal effect by foliage application, Wagner pot (Table 18, symbol E); assay type: in vivo, rice flat sedge (Cyperus iria); conditions: 320 g/ha
Summary of the method: (§3)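 Plants were sown in alluvial soil held under 0.1–0.5 cm standing water and grown 14 days in a greenhouse at 25–30 °C. An emulsifiable formulation, water-diluted to the set dose, was then sprayed onto the foliage, and effects were scored three weeks later using previously defined criteria.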

green foxtail [19] = assay: Test Example 4: herbicidal effect by soil treatment (Table 19, symbol G); assay type: in vivo, green foxtail (Setaria viridis); conditions: amount of applied herbicide 320 g/ha
Summary of the method: as §2

Chinese sprangletop = assay: Test Example 3: herbicidal effect by foliage application, Wagner pot (Table 18, symbol D); assay type: in vivo, chinese sprangletop (Leptochloa chinensis); conditions: 320 g/ha
Summary of the method: as §3

Italian ryegrass [20] = assay: Test Example 4: herbicidal effect by soil treatment (Table 19, symbol K); assay type: in vivo, Italian ryegrass (Lolium multiflorum); conditions: amount of applied herbicide 320 g/ha
Summary of the method: as §2

barnyard grass [21] = assay: Test Example 3: herbicidal effect by foliage application, Wagner pot (Table 18, symbol H); assay type: in vivo, barnyard grass (Echinochloa crus-galli); conditions: 320 g/ha
Summary of the method: as §3

green foxtail [22] = assay: Test Example 5: herbicidal effect by foliage application, plastic box (Table 20, symbol G); assay type: in vivo, green foxtail (Setaria viridis)
Summary of the method: as §1

false cleavers = assay: Test Example 5: herbicidal effect by foliage application, plastic box (Table 20, symbol Q); assay type: in vivo, false cleavers (Galium spurium)
Summary of the method: as §1

wild oat [23] = assay: Test Example 4: herbicidal effect by soil treatment (Table 19, symbol I); assay type: in vivo, wild oat (Avena fatua); conditions: amount of applied herbicide 320 g/ha
Summary of the method: as §2

southern crabgrass [24] = assay: Test Example 4: herbicidal effect by soil treatment (Table 19, symbol F); assay type: in vivo, southern crabgrass (Digitaria ciliaris); conditions: amount of applied herbicide 320 g/ha
Summary of the method: as §2

Italian ryegrass [25] = assay: Test Example 5: herbicidal effect by foliage application, plastic box (Table 20, symbol K); assay type: in vivo, Italian ryegrass (Lolium multiflorum)
Summary of the method: as §1

oval-leafed pondweed = assay: Test Example 1: herbicidal activity, application before weed generation under submerged conditions (Table 16, symbol C); assay type: in vivo, oval-leafed pondweed (Monochoria vaginalis); conditions: amount of applied herbicide 320 g/ha
Summary of the method: (§4)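 Submerged Wagner pots (alluvial soil, 4 cm water) sown with weed seeds and planted with 2.5-leaf rice seedlings; emulsifiable concentrate diluted in water applied to water surface on sowing day. Held in greenhouse at 25-30 °C; injury scored 0-5 by herbicidal rate after three weeks.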

late watergrass = assay: Test Example 1: herbicidal activity, application before weed generation under submerged conditions (Table 16, symbol A); assay type: in vivo, late watergrass (Echinochloa oryzicola); conditions: amount of applied herbicide 320 g/ha
Summary of the method: as §4

Japanese bulrush = assay: Test Example 1: herbicidal activity, application before weed generation under submerged conditions (Table 16, symbol B); assay type: in vivo, Japanese bulrush (Schoenoplectus juncoides); conditions: amount of applied herbicide 320 g/ha
Summary of the method: as §4

[26] = amount of applied herbicide 320 g/ha, foliage application after 14-day growth, evaluated three weeks after application
[27] = foliage application, 320 g/ha, three weeks after application

Compound: COc1ccc(-c2sc3cc(F)c(F)cc3c2-c2c(O)c(C)nn(C)c2=O)cc1 [5-014]
- Herbicidal effect by foliage application, H: barnyard grass (barnyard grass [1]; [26]): 2 (Herbicidal rate of 20% or more and less than 40%)
- Herbicidal effect by foliage application, P: chickweed (chickweed [2]): 5 (Herbicidal rate of 90% or more (almost completely withered))
- Herbicidal effect by foliage application, J: blackgrass (blackgrass [3]; [26]): 0 (Herbicidal rate of 5% or less (almost no effect))
- P: chickweed, herbicidal effect grade (chickweed [4]): 3 (Herbicidal rate of 40% or more and less than 70%)
- M: velvetleaf, herbicidal effect grade (velvetleaf [5]): 4 (Herbicidal rate of 70% or more and less than 90%)
- Herbicidal effect by foliage application, M: velvetleaf (velvetleaf [6]; [26]): 5 (Herbicidal rate of 90% or more (almost completely withered))
- R: persian speedwell, herbicidal effect grade (persian speedwell [7]): 5 (Herbicidal rate of 90% or more (almost completely withered))
- Herbicidal effect by foliage application, R: persian speedwell (persian speedwell [8]; [26]): 5 (Herbicidal rate of 90% or more (almost completely withered))
- Herbicidal effect by foliage application, F: southern crabgrass (southern crabgrass [9]; [26]): 3 (Herbicidal rate of 40% or more and less than 70%)
- Herbicidal effect by foliage application, O: lambsquarters (lambsquarters [10]): 5 (Herbicidal rate of 90% or more (almost completely withered))
- Herbicidal effect by foliage application, I: wild oat (wild oat [11]; [26]): 0 (Herbicidal rate of 5% or less (almost no effect))
- J: blackgrass, herbicidal effect grade (blackgrass [12]): 0 (Herbicidal rate of 5% or less (almost no effect))
- L: windgrass, herbicidal effect grade (windgrass [13]): 0 (Herbicidal rate of 5% or less (almost no effect))
- Herbicidal effect by foliage application, N: redroot pigweed (redroot pigweed [14]): 5 (Herbicidal rate of 90% or more (almost completely withered))
- Herbicidal effect by foliage application, L: windgrass (windgrass [15]; [26]): 0 (Herbicidal rate of 5% or less (almost no effect))
- N: redroot pigweed, herbicidal effect grade (redroot pigweed [16]): 5 (Herbicidal rate of 90% or more (almost completely withered))
- O: lambsquarters, herbicidal effect grade (lambsquarters [17]): 5 (Herbicidal rate of 90% or more (almost completely withered))
- H: barnyard grass, herbicidal effect grade (barnyard grass [18]): 2 (Herbicidal rate of 20% or more and less than 40%)
- herbicidal effect on rice flat sedge (E) (rice flat sedge): 5 (Herbicidal rate of 90% or more (almost completely withered))
- G: green foxtail, herbicidal effect grade (green foxtail [19]): 1 (Herbicidal rate of 5% or more and less than 20%)
- herbicidal effect on Chinese sprangletop (D) (Chinese sprangletop): 0 (Herbicidal rate of 5% or less (almost no effect))
- K: Italian ryegrass, herbicidal effect grade (Italian ryegrass [20]): 0 (Herbicidal rate of 5% or less (almost no effect))
- herbicidal effect on barnyard grass (H) (barnyard grass [21]): 4 (Herbicidal rate of 70% or more and less than 90%)
- Herbicidal effect by foliage application, G: green foxtail (green foxtail [22]; [26]): 2 (Herbicidal rate of 20% or more and less than 40%)
- Herbicidal effect by foliage application, Q: false cleavers (false cleavers; [26]): 4 (Herbicidal rate of 70% or more and less than 90%)
- I: wild oat, herbicidal effect grade (wild oat [23]): 0 (Herbicidal rate of 5% or less (almost no effect))
- F: southern crabgrass, herbicidal effect grade (southern crabgrass [24]): 0 (Herbicidal rate of 5% or less (almost no effect))
- Herbicidal effect by foliage application, K: Italian ryegrass (Italian ryegrass [25]; [26]): 4 (Herbicidal rate of 70% or more and less than 90%)

Compound: COc1cc2sc(-c3ccccc3)c(-c3c(O)c(C)nn(C)c3=O)c2cc1OC [5-055]
- herbicidal effect on barnyard grass (H) (barnyard grass [1]; [27]): 0 (Herbicidal rate of 5% or less (almost no effect))
- herbicidal effect on blackgrass (J) (blackgrass [3]; [27]): 0 (Herbicidal rate of 5% or less (almost no effect))
- herbicidal effect on velvetleaf (M) (velvetleaf [6]; [27]): 2 (Herbicidal rate of 20% or more and less than 40%)
- herbicidal effect on persian speedwell (R) (persian speedwell [8]; [27]): 4 (Herbicidal rate of 70% or more and less than 90%)
- herbicidal effect on southern crabgrass (F) (southern crabgrass [9]; [27]): 0 (Herbicidal rate of 5% or less (almost no effect))
- herbicidal effect on wild oat (I) (wild oat [11]; [27]): 0 (Herbicidal rate of 5% or less (almost no effect))
- herbicidal effect on windgrass (L) (windgrass [15]; [27]): 0 (Herbicidal rate of 5% or less (almost no effect))
- Herbicidal effect, C: oval-leafed pondweed (oval-leafed pondweed): 0 (Herbicidal rate of 5% or less (almost no effect))
- herbicidal effect on rice flat sedge (E) (rice flat sedge): 3 (Herbicidal rate of 40% or more and less than 70%)
- herbicidal effect on Chinese sprangletop (D) (Chinese sprangletop): 0 (Herbicidal rate of 5% or less (almost no effect))
- herbicidal effect on barnyard grass (H) (barnyard grass [21]): 1 (Herbicidal rate of 5% or more and less than 20%)
- herbicidal effect on green foxtail (G) (green foxtail [22]; [27]): 0 (Herbicidal rate of 5% or less (almost no effect))
- Herbicidal effect, A: late watergrass (late watergrass): 2 (Herbicidal rate of 20% or more and less than 40%)
- Herbicidal effect, B: Japanese bulrush (Japanese bulrush): 0 (Herbicidal rate of 5% or less (almost no effect))
- herbicidal effect on false cleavers (Q) (false cleavers; [27]): 0 (Herbicidal rate of 5% or less (almost no effect))
- herbicidal effect on Italian ryegrass (K) (Italian ryegrass [25]; [27]): 4 (Herbicidal rate of 70% or more and less than 90%)
